Source: US5922697A, “Compounds, compositions and methods for inhibiting the binding of proteins containing an SH2 domain to cognate phosphorylated proteins” (Warner-Lambert Company, priority 1998, dated 1999)
Like-named read-outs stand apart in the source and are kept apart here. Square brackets hold non-standard residues; d marks the D form. Peptide text beside a SMILES is read from it. * marks the point of attachment. pY = N[C@@H](Cc1ccc(OP(=O)(O)O)cc1)C(=O)O; NHPhenethyl = c1ccc(CCN*)cc1

Biological target: T1, Src SH2 (Homo sapiens, UniProt P12931)
T1 construct: glutathione-S-transferase(GST)-Src SH2 fusion protein
T1 sequence (P12931 151-248 limits assumed): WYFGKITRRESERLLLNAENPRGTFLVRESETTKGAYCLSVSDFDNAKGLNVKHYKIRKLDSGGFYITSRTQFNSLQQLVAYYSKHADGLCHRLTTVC
Assay: Inhibition of 125I-phosphopeptide binding to immobilized Src SH2
Procedure: The binding affinities of compounds of the present invention to Src SH2 was determined using a competitive radiolabeled phosphopeptide displacement assay.
Binding was performed at room temperature for 20 minutes while continuously inverting the plate. […] Results are expressed as IC50 values in Table 1 below.

[1] = IC50, SRC SH2 Binding, competitive 125I-phosphopeptide displacement, GST-Src SH2 fusion protein, pH 7.5, room temperature, 20 minutes
[2] = competitive 125I-phosphopeptide displacement, GST-Src SH2 fusion protein, pH 7.5, room temperature, 20 minutes; read-out: IC50, SRC SH2 Binding

Row | Structure (SMILES) | IC50 [1] | further results
1 | CC(=O)N[C@@H](Cc1ccc(OP(=O)(O)O)cc1)C(=O)N[C@@H](CCC(=O)O)C(=O)NCCCCC(C)C (relative stereo) [Example 37, [S -(R*,R*)]-4-[2-Acetylamino-3-(4-phosphonooxy-phenyl)-propionylamino]-4-(5-methyl-hexylcarbamoyl)-butyric acid] | 6.7 µM | –
2 | CC(=O)N[C@@H](Cc1ccc(OP(=O)(O)O)cc1)C(=O)N[C@@H](CCC(=O)O)C(=O)N[C@@H](C)CC1CCCCC1 [Example 2, 4-[(S)-2-Acetylamino-3-(4-phosphonooxy-phenyl)-(S)-propionylamino]-4-(2-cyclohexyl-(S)-1-methylethylcarbamoyl)-butyric acid] | 2.4 µM | –
3 | CC(=O)N[C@@H](Cc1ccc(OP(=O)(O)O)cc1)C(=O)N[C@@H](CCC(=O)O)C(=O)N(C)[C@@H](C)CC1CCCCC1 [Example 3] | 2.3 µM | –
4 | CNC(=O)N[C@@H](Cc1ccc(OP(=O)(O)O)cc1)C(=O)N[C@@H](CCC(=O)O)C(=O)N(C)CCCC1CCCCC1 [Example 7, [S-(R*,R*)]-4-[(3-Cyclohexyl-propyl)-methyl-carbamoyl]-4-[2-(3-methyl-ureido)-3-(4-phosphonooxy-phenyl)-propionylamino]-butyric acid] | 2 µM | –
5 | CCCC[C@H](NC(=O)[C@H](Cc1ccc(OP(=O)(O)O)cc1)NC(C)=O)C(=O)N(C)CCCC1CCCCC1 [Example 9, [S-(R*,R*)]-Phosphoric acid mono-[4-(2-acetylamino-2-{1-[(3-cyclohexyl-propyl)-methyl-carbamoyl]-pentylcarbamoyl}-ethyl)-phenyl] ester] | 6.2 µM | –
6 | CC(=O)N[C@@H](Cc1ccc(OP(=O)(O)O)cc1)C(=O)N[C@@H](CCC(=O)O)C(=O)NCCc1cccc2c1CCCC2 [Example 13, [S-(R* ,R*)]-4-[2-Acetylamino-3-(4-phosphonooxy-phenyl)-propionylamino]-4-[2-(5,6,7,8-tetrahydro-naphthalen-1-yl)-ethylcarbamoyl]-butyric acid] | 4.4 µM | –
7 | CC(=O)N[C@@H](Cc1ccc(OP(=O)(O)O)cc1)C(=O)N[C@@H](CCC(=O)O)C(=O)NCCCc1ccccc1 [Example 14, [S-(R*,R*)]-4-[2-Acetylamino-3-(4-phosphonooxy-phenyl)-propionylamino]-4-(3-phenyl-propylcarbamoyl)-butyric acid] | – | IC50 [2]: 10 µM
8 | CC(=O)N[C@@H](Cc1ccc(OP(=O)(O)O)cc1)C(=O)N[C@@H](CCC(=O)O)C(=O)NCc1cccc2ccccc12 [Example 15, [S-(R*,R*)]-4-[2-Acetylamino-3-(4-phosphonooxy-phenyl)-propionylamino]-4-[(naphthalen-1-ylmethyl)-carbamoyl]-butyric acid] | 7 µM | –
9 | CC(=O)N[C@@H](Cc1ccc(OP(=O)(O)O)cc1)C(=O)N[C@@H](CCC(=O)O)C(=O)NCCc1ccccc1 [Example 16, [S-(R*,R*)]-4-[2-Acetylamino-3-(4-phosphonooxy-phenyl)-propionylamino]-4-phenethylcarbamoyl-butyric acid] (Ac-[pY]-Glu-NHPhenethyl) | 9.8 µM | –
10 | CC(=O)N[C@@H](Cc1ccc(OP(=O)(O)O)cc1)C(=O)N[C@@H](CCC(=O)O)C(=O)N(C)[C@@H](C)Cc1ccccc1 [Example 17, 4-[(S)-2-Acetylamino-3-(4-phosphonooxy-phenyl)-(S)-propionylamino]-4-[methyl-((S)-1-methyl-2-phenylethyl)-carbamoyl]-butyric acid] | 3.2 µM | –
11 | CC(=O)N[C@@H](Cc1ccc(OP(=O)(O)O)cc1)C(=O)N[C@@H](CCC(=O)O)C(=O)N[C@@H](C)Cc1ccccc1 [Example 18, 4-[(S)-2-Acetylamino-3-(4-phosphonooxy-phenyl)-(S)-propionylamino]-4-((S)-1-methyl-2-phenylethylcarbamoyl)-butyric acid] | 3.3 µM | –
12 | CC(=O)N[C@@H](Cc1ccc(OP(=O)(O)O)cc1)C(=O)N[C@@H](CCC(=O)O)C(=O)N(C)CCCc1ccccc1 [Example 19, [S-(R*,R*)]-4-[2-Acetylamino-3-(4-phosphonooxy-phenyl)-propionylamino]-4-[methyl-(3-phenyl-propyl)-carbamoyl]-butyric acid] | 5.6 µM | –
13 | CC(=O)N[C@@H](Cc1ccc(OP(=O)(O)O)cc1)C(=O)N[C@@H](Cc1ccc(O)cc1)C(=O)NCCCc1ccccc1 [Example 20, [S-(R*,R*)]-Phosphoric acid mono-(4-{2-acetylamino-2-[2-(4-hydroxy-phenyl)-1-(3-phenyl-propylcarbamoyl)-ethyl-carbamoyl]-ethyl}-phenyl) ester] | – | IC50 [2]: 20 µM
14 | COc1ccccc1CCNC(=O)[C@H](CCC(=O)O)NC(=O)[C@H](Cc1ccc(OP(=O)(O)O)cc1)NC(C)=O [Example 21, [S-(R*,R*)]4-[2-Acetylamino-3-(4-phosphonooxy-phenyl)-propionylamino]-4-[2-(2-methoxy-phenyl)-ethylcarbamoyl]-butyric acid] | – | IC50 (read-out: IC50, SRC SH2 Binding; competitive 125I-phosphopeptide displacement, GST-Src SH2 fusion protein, pH 7.5, room temperature, 20 minutes): 5.5 µM
15 | CC(=O)N[C@@H](Cc1ccc(OP(=O)(O)O)cc1)C(=O)N[C@@H](CCC(=O)O)C(=O)NCCc1ccc(C)cc1 [Example 22, [S-(R*,R*)]-4-[2-Acetylamino-3-(4-phosphonooxy-phenyl)-propionylamino]-4-(2-p-tolyl-ethylcarbamoyl)-butyric acid] | 8.3 µM | –
16 | COc1ccccc1CCN(C)C(=O)[C@H](CCC(=O)O)NC(=O)[C@H](Cc1ccc(OP(=O)(O)O)cc1)NC(C)=O [Example 23, [S-(R*,R*)]-4-[2-Acetylamino-3-(4-phosphonooxy-phenyl)-propionylamino]-4-{[2-(2-methoxy-phenyl)-ethyl]-methyl-carbamoyl}-butyric acid] | 6.2 µM | –
17 | CC(=O)N[C@@H](Cc1ccc(OP(=O)(O)O)cc1)C(=O)N[C@@H](C)C(=O)N(CCCC(=O)O)CCCC1CCCCC1 [Example 25, [S-(R*,R*)]-4-[{2-[2-Acetylamino-3-(4-phosphonooxy-phenyl)-propionylamino}-propionyl]-(3-cyclohexylpropyl)-amino]-butyric acid] | 7.1 µM | –
18 | CC(=O)N[C@@H](Cc1ccc(OP(=O)(O)O)cc1)C(=O)N[C@@H](C)C(=O)N(CCCC(=O)O)CCCc1ccccc1 [Example 26, [S-(R*,R*)]-4-[{2-[2-Acetylamino-3-(4-phosphonooxy-phenyl)-propionylamino}-propionyl]-(3-phenyl-propyl)-amino]-butyric acid] | 9.8 µM | –
19 | CC(=O)N[C@@H](Cc1ccc(OP(=O)(O)O)cc1)C(=O)N[C@@H](C)C(=O)N(CCCCC(=O)O)CCCc1ccccc1 [Example 27, [S-(R*,R*)]-5-[{2-[2-Acetylamino-3-(4-phosphonooxy-phenyl)-propionylamino]-propionyl}-(3-phenyl-propyl)-amino]-pentanoic acid] | 8 µM | –
20 | CCCCN(CCCc1ccccc1)C(=O)[C@H](C)NC(=O)[C@H](Cc1ccc(OP(=O)(O)O)cc1)NC(C)=O [Example 28, [S-(R*,R*)]-Phosphoric acid mono-[4-(2-acetylamino-2-{1-[butyl-(3-phenyl-propyl)-carbamoyl]-ethylcarbamoyl}-ethyl)-phenyl] ester] | 12 µM | –
21 | CC(=O)N[C@@H](Cc1ccc(OP(=O)(O)O)cc1)C(=O)N[C@@H](CCC(=O)O)C(=O)NCCCc1ccc(OCC(=O)O)cc1 [Example 29, [S-(R*,R*)]-4-[2-Acetylamino-3-(4-phosphonooxy-phenyl)-propionylamino]-4-[3-(4-carboxymethoxy-phenyl)-propylcarbamoyl]-butyric acid] | 8.3 µM | –
22 | CC(=O)N[C@@H](Cc1ccc(OP(=O)(O)O)cc1)C(=O)N[C@@H](CCC(=O)O)C(=O)N1CCC[C@H]1Cc1ccccc1 [Example 30] | 5.5 µM | –
23 | CC(=O)N(C)C(Cc1ccc(OP(=O)(O)O)cc1)C(=O)N[C@@H](CCC(=O)O)C(=O)NCCCc1ccccc1 (stereo partly drawn) [Example 32, 4-[(RS)-2-(Acetyl-methyl-amino)-3-(4-phosphonooxy-phenyl)-(S)-propionylamino]-4-(3-phenylpropylcarbamoyl)-butyric acid] | 9.2 µM | –
24 | CS(=O)(=O)N[C@@H](Cc1ccc(OP(=O)(O)O)cc1)C(=O)N[C@@H](CCC(=O)O)C(=O)NCCCc1ccccc1 [Example 33, [S-(R*,R*)]-4-[2-Methanesulfonylamino-3-(4-phosphonooxy-phenyl)-propionylamino]-4-(3-phenyl-propylcarbamoyl)-butyric acid] | 9.3 µM | –
25 | CCC(C)CCCNC(=O)[C@H](CCC(=O)O)NC(=O)[C@H](Cc1ccc(OP(=O)(O)O)cc1)NC(C)=O (stereo partly drawn) [Example 38, [S-(R*,R*)]-4-[2-Acetylamino-3-(4-phosphonooxy-phenyl)-propionylamino]-4-(4-methyl-hexylcarbamoyl)-butyric acid] | 4.1 µM | –
26 | NC(=O)c1cc(CNC(=O)c2ccc(OP(=O)(O)O)cc2)ccc1OCc1ccccc1 [Example 39, Phosphoric acid mono-[4-(4-benzyloxy-3-carbamoyl-benzylcarbamoyl)-phenyl] ester] | 9.7 µM | –
27 | Cc1cccc(COc2ccc(CNC(=O)c3ccc(OP(=O)(O)O)cc3)cc2C(N)=O)c1 [Example 40, Phosphoric acid mono-{4-[3-carbamoyl-4-(3-methyl-benzyloxy)-benzylcarbamoyl]-phenyl} ester] | 7 µM | –
28 | Cc1cc(C)cc(COc2ccc(CNC(=O)c3ccc(OP(=O)(O)O)cc3)cc2C(N)=O)c1 [Example 41, Phosphoric acid mono-{4-[3-carbamoyl-4-(3,5-dimethyl-benzyloxy)-benzylcarbamoyl]-phenyl} ester] | 6.6 µM | –
29 | CC(C)CCCOc1ccc(CNC(=O)c2ccc(OP(=O)(O)O)cc2)cc1C(N)=O [Example 42, Phosphoric acid mono-{4-[3-carbamoyl-4-(4-methyl-pentyloxy)-benzylcarbamoyl]-phenyl} ester] | ~30 µM | –
30 | CCC(C)CCCOc1ccc(CNC(=O)c2ccc(OP(=O)(O)O)cc2)cc1C(N)=O (stereo not drawn) [Example 43, Phosphoric acid mono-{4-[3-carbamoyl-4-(4-methyl-hexyloxy) -benzylcarbamoyl]-phenyl} ester] | ~20 µM | –
